Here are results for two molecules from ChEMBL document CHEMBL4138123, “Design, synthesis and biological evaluation of novel pyrazolochalcones as potential modulators of PI3K/Akt/mTOR pathway and inducers of apoptosis in breast cancer cells” (Eur J Med Chem, 2017).

SMILES strings stand for the structures. Where only a bound is given, the exact number is not on record here.

Common to all, as to type: functional
Assay [1] concerns Malme-3M. In words: Cytotoxicity against human MALME-3M cells assessed as cell growth at 100 uM after 48 hrs by sulforhodamine B assay relative to control. The note with it: read-out: Activity. On the technique in general: In SRB staining, fixed cells bind dye roughly in proportion to their protein.
The subject of assay [2] is CCRF-CEM. As to the kind of experiment: Cytotoxicity against human CCRF-CEM cells assessed as cell growth at 0.01 uM after 48 hrs by sulforhodamine B assay relative to control. To be noted: read-out: Activity.
The subject of assay [3] is OVCAR-8. As to the kind of experiment: Cytotoxicity against human OVCAR8 cells assessed as growth inhibition after 48 hrs by sulforhodamine B assay. The note with it: OVCAR-8, 48 h.
The test system of another assay is SK-MEL-28. As to the kind of experiment: Cytotoxicity against human SK-MEL-28 cells assessed as cell growth at 0.1 uM after 48 hrs by sulforhodamine B assay relative to control. The note with it: SK-MEL-28, 48 h, read-out: Activity.
Another assay relates to MDA-MB-468. In words: Cytotoxicity against human MDA-MB-468 cells assessed as cell growth at 0.1 uM after 48 hrs by sulforhodamine B assay relative to control. The note with it: MDA-MB-468, 48 h, read-out: Activity.
For another assay, the system named is PC-3. In words: Cytotoxicity against human PC3 cells assessed as cell growth at 0.01 uM after 48 hrs by sulforhodamine B assay relative to control. To be noted: PC-3, 48 h, read-out: Activity.
The test system of the next assay is SNB-19. In words: Cytotoxicity against human SNB19 cells assessed as cell growth at 100 uM after 48 hrs by sulforhodamine B assay relative to control. The note with it: SNB-19, 48 h, read-out: Activity.
In the next assay the test system is UACC-257. As to the kind of experiment: Cytotoxicity against human UACC257 cells assessed as cell growth at 1 uM after 48 hrs by sulforhodamine B assay relative to control. To be noted: UACC-257, 48 h, read-out: Activity.
The subject of the next assay is NCI-H460. As to the kind of experiment: Cytotoxicity against human NCI-H460 cells assessed as cell growth at 1 uM after 48 hrs by sulforhodamine B assay relative to control. To be noted: NCI-H460, 48 h, read-out: Activity.
Assay [4] has as its system HT-29. In words: Cytotoxicity against human HT-29 cells assessed as cell growth at 0.1 uM after 48 hrs by sulforhodamine B assay relative to control. To be noted: HT-29, 48 h, read-out: Activity.
Assay [5] has as its system A549. As to the kind of experiment: Cytotoxicity against human A549/ATCC cells assessed as growth inhibition after 48 hrs by sulforhodamine B assay. The note with it: A549, 48 h.
Another assay relates to HCT-15. As to the kind of experiment: Cytotoxicity against human HCT15 cells assessed as cell growth at 0.1 uM after 48 hrs by sulforhodamine B assay relative to control. The note with it: HCT-15, 48 h, read-out: Activity.
The subject of a further assay is MDA-MB-435. As to the kind of experiment: Cytotoxicity against human MDA-MB-435 cells assessed as cell growth at 0.01 uM after 48 hrs by sulforhodamine B assay relative to control. The note with it: MDA-MB-435, 48 h, read-out: Activity.
The subject of the next assay is K562. In words: Cytotoxicity against human K562 cells assessed as growth inhibition after 48 hrs by sulforhodamine B assay. The note with it: K562, 48 h.
Assay [6] has as its system RPMI-8226. As to the kind of experiment: Cytotoxicity against human RPMI8226 cells assessed as cell growth at 0.01 uM after 48 hrs by sulforhodamine B assay relative to control. To be noted: RPMI-8226, 48 h, read-out: Activity.
The subject of assay [7] is SW-620. As to the kind of experiment: Cytotoxicity against human SW620 cells assessed as cell growth at 10 uM after 48 hrs by sulforhodamine B assay relative to control. The note with it: SW-620, 48 h, read-out: Activity.
Assay [8] deals with Malme-3M. As to the kind of experiment: Cytotoxicity against human MALME-3M cells assessed as growth inhibition after 48 hrs by sulforhodamine B assay.
Another assay relates to COLO 205. In words: Cytotoxicity against human COLO205 cells assessed as cell growth at 100 uM after 48 hrs by sulforhodamine B assay relative to control. To be noted: COLO 205, 48 h, read-out: Activity.
Assay [9] concerns NCI-H226. In words: Cytotoxicity against human NCI-H226 cells assessed as cell growth at 10 uM after 48 hrs by sulforhodamine B assay relative to control. To be noted: NCI-H226, 48 h, read-out: Activity.
Assay [10] deals with HCT-116. As to the kind of experiment: Cytotoxicity against human HCT116 cells assessed as growth inhibition after 48 hrs by sulforhodamine B assay. To be noted: HCT-116, 48 h.
In assay [11] the test system is HT-29. In words: Cytotoxicity against human HT-29 cells assessed as cell growth at 0.01 uM after 48 hrs by sulforhodamine B assay relative to control. The note with it: HT-29, 48 h, read-out: Activity.
The test system of assay [12] is A549. In words: Cytotoxicity against human A549/ATCC cells assessed as cell growth at 0.01 uM after 48 hrs by sulforhodamine B assay relative to control. To be noted: A549, 48 h, read-out: Activity.
The test system of another assay is U-251. As to the kind of experiment: Cytotoxicity against human U251 cells assessed as cell growth at 10 uM after 48 hrs by sulforhodamine B assay relative to control. The note with it: U-251, 48 h, read-out: Activity.
The subject of another assay is SN12C. In words: Cytotoxicity against human SN12C cells assessed as cell growth at 100 uM after 48 hrs by sulforhodamine B assay relative to control. To be noted: read-out: Activity.
For assay [13], the system named is Malme-3M. As to the kind of experiment: Cytotoxicity against human MALME-3M cells assessed as cell growth at 10 uM after 48 hrs by sulforhodamine B assay relative to control. The note with it: read-out: Activity.
In the next assay the test system is SF-268. As to the kind of experiment: Cytotoxicity against human SF268 cells assessed as cell growth at 0.01 uM after 48 hrs by sulforhodamine B assay relative to control. The note with it: SF-268, 48 h, read-out: Activity.
Assay [14] relates to HCT-116. In words: Cytotoxicity against human HCT116 cells assessed as cell growth at 100 uM after 48 hrs by sulforhodamine B assay relative to control. To be noted: HCT-116, 48 h, read-out: Activity.
Assay [15] relates to OVCAR-8. As to the kind of experiment: Cytotoxicity against human OVCAR8 cells assessed as cell growth at 1 uM after 48 hrs by sulforhodamine B assay relative to control. To be noted: OVCAR-8, 48 h, read-out: Activity.
Assay [16] concerns RPMI-8226. As to the kind of experiment: Cytotoxicity against human RPMI8226 cells assessed as cell growth at 100 uM after 48 hrs by sulforhodamine B assay relative to control. The note with it: RPMI-8226, 48 h, read-out: Activity.
The next assay deals with M14. As to the kind of experiment: Cytotoxicity against human M14 cells assessed as growth inhibition after 48 hrs by sulforhodamine B assay. To be noted: M14, 48 h.
Assay [17] relates to SW-620. As to the kind of experiment: Cytotoxicity against human SW620 cells assessed as cell growth at 1 uM after 48 hrs by sulforhodamine B assay relative to control. The note with it: SW-620, 48 h, read-out: Activity.
The test system of assay [18] is CCRF-CEM. As to the kind of experiment: Cytotoxicity against human CCRF-CEM cells assessed as cell growth at 1 uM after 48 hrs by sulforhodamine B assay relative to control. To be noted: read-out: Activity.
A further assay has as its system SF-539. As to the kind of experiment: Cytotoxicity against human SF539 cells assessed as cell growth at 100 uM after 48 hrs by sulforhodamine B assay relative to control. The note with it: SF-539, 48 h, read-out: Activity.
For assay [19], the system named is OVCAR-8. In words: Cytotoxicity against human OVCAR8 cells assessed as cell growth at 10 uM after 48 hrs by sulforhodamine B assay relative to control. The note with it: OVCAR-8, 48 h, read-out: Activity.
Assay [20] relates to NCI-H226. As to the kind of experiment: Cytotoxicity against human NCI-H226 cells assessed as cell growth at 100 uM after 48 hrs by sulforhodamine B assay relative to control. To be noted: NCI-H226, 48 h, read-out: Activity.

As a reminder, the LC50 is the concentration that kills 50% of the test population. A word on the TGI: it is the concentration giving total growth inhibition. On to `COc1cc(-c2cc(/C=C/C(=O)c3ccc(F)c(F)c3)[nH]n2)cc(OC)c1OC`, for which the growth at 100 µM with Malme-3M [1] is -31%; with SNB-19, 22%; in the assay on COLO 205, -99%; with SN12C it was -22%; in the assay with HCT-116 [14], -52%; with RPMI-8226 [16], -36%. Further, the growth at 100 µM in the assay with SF-539 is -63%; in the assay on NCI-H226 [20], -65%. Also, the growth at 0.01 µM was determined as 99% with CCRF-CEM [2]; 98% in the assay on PC-3; 98% in the assay with MDA-MB-435; 94% in the assay with RPMI-8226 [6]; 104% with HT-29 [11]; 101% in the assay with A549 [12]. Further, in the assay on SF-268, the growth at 0.01 µM was found to be 94%. Also, the LC50 in the assay on OVCAR-8 [3] was over 100 µM; in the assay on Malme-3M [8] it was over 100 µM; in the assay with HCT-116 [10], 94.2 µM. Also, the TGI in the assay on OVCAR-8 [3] worked out at 17.3 µM; in the assay on A549 [5] it was 9.9 µM; in the assay with K562, 16.5 µM; in the assay on Malme-3M [8], 9.4 µM; in the assay on HCT-116 [10], 13.9 µM; in the assay with M14, 11.9 µM. The growth at 0.1 µM came to 102% in the assay with SK-MEL-28, 94% in the assay on MDA-MB-468, 102% with HT-29 [4] and 95% in the assay with HCT-15. In addition, the growth at 1 µM is 72% in the assay with UACC-257; 103% with NCI-H460; 89% in the assay on OVCAR-8 [15]; 93% in the assay with SW-620 [17]; 91% with CCRF-CEM [18]. For the same molecule, in the assay with A549 [5], the LC50 (concentration giving 50% net cell kill) was over 100 µM. The LC50 (concentration killing 50% of cells) in the assay on K562 and with M14 was over 100 µM in each case. In addition, the growth at 10 µM in the assay on SW-620 [7] was 12%; in the assay on NCI-H226 [9] it was 16%; with U-251, 7%; with Malme-3M [13], -3%; with OVCAR-8 [19] it was 4%.
Usually GI50 stands for the concentration that inhibits growth by half. With `COc1ccc(-c2cc(/C=C/C(=O)c3ccc4c(c3)OCO4)[nH]n2)cc1OC`, the GI50 in the assay with OVCAR-8 [3] amounted to 2.63 µM; with A549 [5] it was 2.25 µM; in the assay on K562, 0.61 µM; in the assay with Malme-3M [8], 2.59 µM; with HCT-116 [10] it was 0.36 µM; in the assay with M14, 1.91 µM.
